Laboratory results reported in patent US20250249013A1, “COMBINATION METABOLIC-EPIGENETIC TREATMENT FOR EARLY LUNG CANCER” (THE REGENTS OF THE UNIVERSITY OF CALIFORNIA, priority 2022, published 2025).

Experiments:
[1] = system: KP mice carrying LUADs; test: KP mice treated with empagliflozin for 6 weeks: lung histology (H&E) and IHC; format: in vivo, mouse
Description: (§1) Lung tumors were induced by intranasal administration of Adeno-Cre (purchased from University of Iowa Viral Vector Core) as previously described (Scafoglio et al., 2018), or by transthoracic injection of Adeno-Cre in KPluc mice. All treatment trials were performed 2 weeks after tumor induction, and the results of biological duplicates were pooled for statistical analysis. In all trials, mice were assigned to therapeutic groups so that there were no significant differences in baseline tumor burden, age, sex, or weight among the different groups.
In the trial for assessment of tumor differentiation by immunohistochemistry (FIG. 1A-E, 6L-M, and EV1A-C) lung tumors were induced by intranasal administration of Adeno-Cre. After tumor induction, mice (n=11 for placebo and 13 for empagliflozin group) were treated with either placebo (DMSO 5%, PEG 30%, Tween80 10%) or empagliflozin (10 mg/Kg/d by oral gavage) for 6 weeks and then sacrificed for lung collection and fixation in formalin.
For the GEMMs, the mouse lungs were collected and inflated with 10% formalin in phosphate-buffered saline. After 24 hours, formalin was replaced to 70% ethanol. All tissues were paraffin-embedded and sliced into […] sections in the Translational Pathology Core Laboratory (TPCL) at UCLA.
For IHC staining, the slides were deparaffinized by overnight incubation at 65° C., followed by rehydration by serial passages in xylenes (three washes of 5 min in 100% xylenes) and decreasing concentrations of ethanol (two washes in 100% ethanol, two washes in 95%, one wash in 80%, one wash in 70%, and one wash in water). Antigen retrieval was performed for 23 min in AR6 (pH 6.0) buffer.
Blocking was performed with 5% goat serum for 1 hour at room temperature, followed by incubation with primary antibodies overnight at 4° C. Incubation with biotin-labeled secondary antibody was performed at room temperature for 1 hour, followed by incubation with avidin-biotin peroxidase complex and ImmPACT 3,3′-diaminobenzidine (DAB). Counterstain was performed with Harris' haematoxylin diluted 1:5 in water, followed by […] step and mounting slide. After the staining, digital images of the slides were obtained with an Aperio ScanScope slide scanner (Leica Biosystems). The quantification was performed using the QPath software. Briefly, regions of interests were drawn blindly in each slide to include each tumor present in a whole-lung section, followed by cell detection and quantification of the DAB signal using a constant threshold for all samples in the same experiment. Staining intensity in each cell was classified as negative (0), weak (1), median (2), or strong (3). The results were expressed as H score.
QuPath (Bankhead et al, 2017) was used for signal quantification in IHC staining. It was expressed as H score. Kaplan-Meier curves were performed with Kaplan-Meir Plotter tool (Gyorffy, 2021), using the lung cancer section. For the selected genes only, the best probe was used. All dataset available were used as cohort. For Kaplan-Meier plot performed using multiple genes, the option “use mean expression of selected genes” was set.

[2] = system: KP mice carrying LUADs; test: ELISA for H3K27me3 in KP tumors after empagliflozin; format: in vivo, mouse; settings: transthoracic AdenoCre, empagliflozin for 1 week, vs placebo
Description: For the measurement of in vivo HeK27 trimethylation (FIG. 3B), mice (n=4 per group) received transthoracic adenoCre and were treated for 3 weeks with either placebo (0.5% hypromellose-methyl cellulose) or empagliflozin (10 mg/Kg/d by oral gavage) followed by lung collection and histone extraction for ELISA assay.
The levels of trimethylation on H3K27me3 in tumors treated with empaglifozin were detected by ELISA kits (Active Motif) according to the manufacturer's instructions. The experiment was carried out with 4 replicates for each group. After tumor collecting, histone extraction was performed.
We used H3K27me3 and H3 total antibodies for plate coating. The absorbance was detected by Varioskan Lux (Thermo Fisher Scientific). The H3K27me3 levels were normalized to H3 total and presented as optical densitometry (O. D.) 450 nm of a ratio of H3K27me3/H3.

[3] = system: KP mice carrying LUADs; test: KP mice treated with empagliflozin, ex vivo BLI, then tail vein re-injection of sorted tumor cells in syngeneic mice; parameters: species or system mouse
Description: For our studies on the investigation of cell aggressiveness due to the glucose deprivation, we used syngeneic FVB mice. Two experiments were performed, in biological duplicate.
In the second experiment (FIG. 2G-J), KP mice injected transthoracically with AdenoCre were treated for 3 weeks with either placebo (n=3) or empagliflozin (n=3), and sacrificed for lung collection. Tumors were identified in the murine lungs by ex vivo bioluminescence and dissociated. Tumor single cells were resuspended in cold PBS followed by magnetic beads sorting (Miltenyi Biotec) to isolate the Epcam-positive epithelial cells. Finally, sorted tumor cells were injected by tail vein inoculation (1,000,000 cells/mouse) into syngeneic mice (n=6 per group). Tumor burden was measured by bioluminescence until 13 weeks after inoculation.

[4] = system: KP mice carrying LUADs; test: KP mice treated with empagliflozin for 4 weeks: RT-PCR on lung tumors; format: in vivo, mouse; settings: vs placebo
Description: as §1
In the trial for assessment of tumor differentiation by RT-PCR (FIGS. 1F and 6C) mice (n=3) received intranasal AdenoCre and treatment with either placebo (0.5% hypromellose-methyl cellulose) or empagliflozin (10 mg/Kg/d by oral gavage) for 4 weeks, followed by tumor collection and RNA extraction. RT-PCR was performed in technical triplicates, yielding a total of 9 experimental points per group.
(§2) Total RNA was extracted from A549, NCI-H358 and 2953A by using TRI Reagent Solution (Applied Biosystem), according to manufacturer instruction. RNA concertation was assayed by Nanodrop 3000 spectrophotometer (Thermo Fisher Scientific). Then, 1 μg of RNA was treated with DNase I (Thermo Fisher Scientific) and used for cDNA preparation.
(§3) cDNA was prepared using 1 μg of RNA with SuperScript IV Reverse Transcriptase (Invitrogen). SYBR green-based RT-PCR kit (Biorad) was performed using human and mouse primers (See Table EV11). mRNA levels were normalized to GAPDH (ΔCt=Ctgene of interest-Ct GAPDH) and presented as relative mRNA expression (ΔΔCt=2-(ΔCtsample-ΔCtcontrol)). All primers were designed by NCBI Primer-BLAST and purchased from Integrated DNA Technologies.

[5] = system: KP mice carrying LUADs; test: Combination treatment trial in KP mice, tumor burden by bioluminescence imaging; format: in vivo, mouse; settings: 6 weeks from week 2, empagliflozin 10 mg/kg/d, tazemetostat 125 mg/kg/bid, oral gavage
Description: as §1
In the combination treatment trial (FIG. 3F-G), mice received the first BLI measurement two weeks post-AdenoCre administration for measurement of the baseline tumor burden. Four therapeutic groups were established as follows: (i) Placebo (n=11), receiving oral gavage of vehicle (DMSO 5%, PEG 30%, Tween80 10%); (ii) SGLT2 inhibitor Empaglifozin (10 mg/Kg/d, n=13); (iii) EZH2 inhibitor Tazemetostat (125 mg/Kg/bid, n=10); (iiii) Empaglifozin and Tazemetosat (n=19). Each group received bi-daily administration by oral gavage.

[6] = system: NCI-H358 cells; test: αKG rescue in low glucose, western blot and RT-PCR; format: cell-based, human; settings: NCI-H358, 2 hours in low glucose, αKG
Description: (§4) Human lung cancer A549 (CCL-185) and NCI-H358 (CRL-5807) cells lines were purchased from American Type Culture Collection (ATCC, Manassas, VA). Cells were maintained in culture according to manufacturer protocol using Roswell Park Memorial Institute (RPMI) 1640 medium (Corning, Cat. #10-040CV) supplemented with 10% FBS and 5% 1× Pen-Strep and kept in 37° C. and 5% of CO2. Murine 2953A cell line was established in our lab from a KP lung tumor by tissue dissociation. This cell line was maintained in culture in Dulbecco's modified Eagle Medium (DMEM) medium (Corning, Cat. #10-017CV) with 5% FBS and 5% 1× Pen-Strep.
(§5) All experiments in cell lines were performed in biological triplicate. Cells were seeded at same confluence and grown for 5 days (and for some experiments overnight or up to 9 days or 30 days, as indicated in the figures and text) in different concentration of glucose: high (20 mM), low (1 mM) and for some experiments medium (5 mM), as indicated. We used mediums with glutamine and without glucose: RPMI (Corning Cat. #10-043CV) for A549 and NCI-H358 cells, DMEM (ThermoScientific Cat. #11566025) for 2953A cells, supplemented with 10% FBS, 5% of 1× Pen-Strep and complemented with D-Glucose to the desired final concentration, as indicated in the figures.
(§6) All αKG rescue experiments were conducted using 10 mM alpha-ketoglutarate (α-KG; Sigma) and α-Mannitol (Sigma) as osmotic control.
(§7) For total protein extraction, cells were harvested, washed twice with ice-cold PBS-EDTA (0.5 mm EDTA), lysed using RIPA buffer (50 mM Tris-HCl pH 7.6, 150 mM NaCl, 0.1% SDS, 0.5% C24H39NaO4, 1% NP-40, 2 mm EDTA, 50 mm NaF) for 15 min on ice and centrifuged at 13,000 rpm for 30 min at +4° C. The resulting protein extracts were quantified using BCA protein assay followed by analysis by SDS-PAGE and Western blotting.
(§8) Histones was extracted from A549, NCI-H358 and 2953A cell lines using the Histone extraction kit (Abcam) according to manufacturer instructions.
(§9) SDS-PAGE and Western blotting analyses were performed using standard protocols. For antibodies information, see Reagents and Tools Table. Western blot images were detected by iBright Imaging Systems (Thermo Fisher Scientific). The protein detected was normalized to Actin or H3 total antibodies, this last in case of histonic extract. Each immunodetection derived from the same membrane was performed with the same exposure times according to the manufacture's antibody guidelines and was cropped only for presentation purposes; this is indicated by a dotted line.
as §2, §3

[7] = system: A549 cells; test: αKG rescue in low glucose, western blot and RT-PCR; format: cell-based, human; settings: A549, 2 hours in low glucose, αKG
Description: as §4, §5, §6, §7, §8, §9, §2, §3

[8] = system: PANC1; test: αKG rescue of FoxA2 in low glucose, western blot; format: cell-based, human; settings: PANC1 pancreas cancer cells, low glucose 5 days
Description: (§10) For the glutamine deprivation experiment, A549 and NCI-H358 cell lines were also seeded and grown up to 5 days in DMEM without glutamine and glucose (Corning Cat. #17-207CV) and complemented with L-glutamine (GlutaMAX CTS, Gibco) to a final concentration of either 6 mM (high glutamine) or 2 mM (low glutamine) and D-Glucose to a final concentration of either 10 mM (high glucose) or 1 mM (low glucose). Finally, breast cancer (MCF7) and pancreatic cancer (PANC1) cell lines were purchased from ATCC and were seeded and grown up to 5 days in RPM11640 complemented with D-Glucose to a final concentration of either 20 mM or 1 mM.
as §6, §9

[9] = system: MCF7; test: αKG rescue of FoxA2 in low glucose, western blot; format: cell-based, human; settings: MCF7 breast cancer cells, low glucose 5 days
Description: as §10, §6, §9

[10] = system: long non-coding RNA HIFAL; test: Expression of HIFAL in low glucose with αKG; format: cell-based; settings: cell line not stated (Fig. EV5F-G)
Description: as §6, §3

[11] = empagliflozin 10 mg/kg/d, 6 weeks, vs placebo
[12] = KP tumors week 6, empagliflozin 4 weeks

Structure (SMILES): OC[C@H]1O[C@@H](c2ccc(Cl)c(Cc3ccc(O[C@H]4CCOC4)cc3)c2)[C@H](O)[C@@H](O)[C@@H]1O [empagliflozin]
- differentiation of lung lesions, visual inspection of H&E staining ([1]; empagliflozin 10 mg/kg/d oral gavage, week 2 to week 8 post-AdenoCre, vs placebo): more poorly differentiated
- clear cell component of tumors ([1]; empagliflozin 10 mg/kg/d, 6 weeks, completely absent from placebo tumors): some of the tumors in the empagliflozin group had a clear cell component
- E-cadherin IHC signal (H score) [1, 11]: significant down-regulation
- FoxA2 IHC signal (H score) [1, 11]: significant reduction
- Ttf-1 IHC signal (H score) [1, 11]: significant reduction
- micropapillary component of murine tumors, pathological quantification [1, 11]: increasing
- solid component of murine tumors, pathological quantification [1, 11]: significantly reducing
- tri-methylation on H3K27 (H3K27me3 over total H3), ELISA [2]: significant increase
- tumor burden, ex vivo BLI ([3]; KP mice, empagliflozin week 2 to week 5 after transthoracic AdenoCre, vs placebo): significantly reduced
- tumors formed after re-injection of treated tumor cells in syngeneic mice, BLI ([3]; same number of sorted epithelial cells by tail vein, BLI at week 13, vs placebo group): formed larger tumors than the placebo group
- HIF1α RNA levels, RT-PCR ([4]; KP murine tumors, empagliflozin 4 weeks): significant up-regulation
- surfactant protein C (SpC) expression, qPCR ([4]; KP tumors collected week 6 post-induction, empagliflozin 10 mg/kg/d 4 weeks): significant reduction
- FoxA2 expression, qPCR [4, 12]: significant reduction
- FoxJ1 expression (ciliated cell marker), qPCR [4, 12]: reduced expression
- HmgA2 expression, qPCR [4, 12]: increase
- Pdpn expression (type I alveolar cell marker), qPCR [4, 12]: reduced expression
- Scgb3A2 expression (Clara cell marker), qPCR [4, 12]: reduced expression
- Ttf1 expression, qPCR [4, 12]: significant reduction
- tumor burden by bioluminescence imaging, compared with placebo [5]: significantly reduced

Structure (SMILES): O=C(O)CCC(=O)C(=O)O [αKG, alpha-ketoglutarate]
- activation of HIF1α after short-time glucose deprivation, western blot [6]: rescued
- activation of HIF1α after short-time glucose deprivation, western blot [7]: rescued
- low glucose-induced FoxA2 down-regulation, western blot [8]: rescued
- low glucose-induced FoxA2 down-regulation, western blot [9]: rescued
- activation of HIFAL in low glucose [10]: completely rescued
